Read-outs that look alike come from different tables or passages of the source.
What was measured:
[1] = tested on: pLAI reporter virus; experiment: microbe, parasite or virus in culture; type: cell-based, HIV; settings: Human immunodeficiency virus 1, MT4, 72 h
[2] = tested on: HIV-1 (IIIB); experiment: microbe, parasite or virus in culture; type: cell-based; settings: Human immunodeficiency virus 1, IIIB, MT4, 120 h, read-out: MT4 EC50
[3] = in vitro; settings: human, uninfected MT-4 cells
[4] = HIV-1 (IIIB) in MT-4 cells, 5 days incubation, Cell Titer Glo

| Compound | EC50 ([1]; read-out: RLUC 50% HS EC50) | EC50 ([1]; read-out: RLUC CCM EC50) | EC50 [2, 4] | CC50 at 5 days [3] | EC50 [2] |
| --- | --- | --- | --- | --- | --- |
| C[C@H]1CC[C@]2(CC(=O)N(C)O2)[C@H]2CN1C(=O)c1c(O)c(=O)c(C(=O)NCc3c(F)cc(F)cc3F)cn12 [Example 108, (3′S,5S,7′R)-12′-hydroxy-2,3′-dimethyl-1′,3,11′-trioxo-N-(2,4,6-trifluorobenzyl)-1′,4′,5′,11′-tetrahydro-3′H,7′H-spiro[isoxazolidine-5,6′-[2,7]methanopyrido[1,2-a][1,4]diazonine]-10′-carboxamide] | 7.8 nM | 0.5 nM | 3.5 nM | ≥ 50000 nM | – |
| C[C@H]1CC[C@]2(CC(=O)N(Cc3ccc(Cl)cc3)O2)[C@H]2CN1C(=O)c1c(O)c(=O)c(C(=O)NCc3c(F)cc(F)cc3F)cn12 [Example 109, (3′S,5S,7′R)-2-(4-chlorobenzyl)-12′-hydroxy-3′-methyl-1′,3,11′-trioxo-N-(2,4,6-trifluorobenzyl)-1′,4′,5′,11′-tetrahydro-3′H,7′H-spiro[isoxazolidine-5,6′-[2,7]methanopyrido[1,2-a][1,4]diazonine]-10′-carboxamide] | 3.9 nM | 0.3 nM | 1.6 nM | 2890 nM | – |
| C[C@H]1CC[C@]2(CC(=O)N(Cc3ccc(F)cc3F)O2)[C@H]2CN1C(=O)c1c(O)c(=O)c(C(=O)NCc3c(F)cc(F)cc3F)cn12 [Example 110, (3′S,5S,7′R)-2-(2,4-difluorobenzyl)-12′-hydroxy-3′-methyl-1′,3,11′-trioxo-N-(2,4,6-trifluorobenzyl)-1′,4′,5′,11′-tetrahydro-3′H,7′H-spiro[isoxazolidine-5,6′-[2,7]methanopyrido[1,2-a][1,4]diazonine]-10′-carboxamide] | 2.9 nM | 0.3 nM | 1.2 nM | 12000 nM | – |
| C[C@H]1CC[C@]2(CC(=O)N(Cc3cccc(C(F)(F)F)c3)O2)[C@H]2CN1C(=O)c1c(O)c(=O)c(C(=O)NCc3c(F)cc(F)cc3F)cn12 [Example 111, (3′S,5S,7′R)-12′-hydroxy-3′-methyl-1′,3,11′-trioxo-N-(2,4,6-trifluorobenzyl)-2-(3-(trifluoromethyl)benzyl)-1′,4′,5′,11′-tetrahydro-3′H,7′H-spiro[isoxazolidine-5,6′-[2,7]methanopyrido[1,2-a][1,4]diazonine]-10′-carboxamide] | 1.9 nM | 0.4 nM | 2.3 nM | 7230 nM | – |
| C[C@H]1CC[C@]2(CC(=O)N(Cc3ccc4ncsc4c3)O2)[C@H]2CN1C(=O)c1c(O)c(=O)c(C(=O)NCc3c(F)cc(F)cc3F)cn12 [Example 112, (3′S,5S,7′R)-2-(benzo[d]thiazol-6-ylmethyl)-12′-hydroxy-3′-methyl-1′,3,11′-trioxo-N-(2,4,6-trifluorobenzyl)-1′,4′,5′,11′-tetrahydro-3′H,7′H-spiro[isoxazolidine-5,6′-[2,7]methanopyrido[1,2-a][1,4]diazonine]-10′-carboxamide] | 0.4 nM | 0.2 nM | 0.7 nM | ≥ 50000 nM | – |
| C[C@H]1CC[C@]2(CC(=O)N(Cc3ccc4scnc4c3)O2)[C@H]2CN1C(=O)c1c(O)c(=O)c(C(=O)NCc3c(F)cc(F)cc3F)cn12 [Example 113, (3′S,5S,7′R)-2-(benzo[d]thiazol-5-ylmethyl)-12′-hydroxy-3′-methyl-1′,3,11′-trioxo-N-(2,4,6-trifluorobenzyl)-1′,4′,5′,11′-tetrahydro-3′H,7′H-spiro[isoxazolidine-5,6′-[2,7]methanopyrido[1,2-a][1,4]diazonine]-10′-carboxamide] | 0.7 nM | 0.1 nM | 0.7 nM | ≥ 50000 nM | – |
| C[C@H]1CC[C@]2(CC(=O)N(Cc3cccc4[nH]cnc34)O2)[C@H]2CN1C(=O)c1c(O)c(=O)c(C(=O)NCc3c(F)cc(F)cc3F)cn12 [Example 114, (3′S,5S,7′R)-2-((1H-benzo[d]imidazol-4-yl)methyl)-12′-hydroxy-3′-methyl-1′,3,11′-trioxo-N-(2,4,6-trifluorobenzyl)-1′,4′,5′,11′-tetrahydro-3′H,7′H-spiro[isoxazolidine-5,6′-[2,7]methanopyrido[1,2-a][1,4]diazonine]-10′-carboxamide] | 5.9 nM | 1.9 nM | 6.1 nM | ≥ 50000 nM | – |
| C[C@H]1CC[C@]2(CC(=O)N(Cc3ccc(C#N)cc3)O2)[C@H]2CN1C(=O)c1c(O)c(=O)c(C(=O)NCc3c(F)cc(F)cc3F)cn12 [Example 118, (3′S,5S,7′R)-2-(4-cyanobenzyl)-12′-hydroxy-3′-methyl-1′,3,11′-trioxo-N-(2,4,6-trifluorobenzyl)-1′,4′,5′,11′-tetrahydro-3′H,7′H-spiro[isoxazolidine-5,6′-[2,7]methanopyrido[1,2-a][1,4]diazonine]-10′-carboxamide] | 0.4 nM | 0.4 nM | 2.6 nM | ≥ 50000 nM | – |
| COc1ccc(CN2O[C@@]3(CC[C@H](C)N4C[C@H]3n3cc(C(=O)NCc5c(F)cc(F)cc5F)c(=O)c(O)c3C4=O)CC2=O)cc1 [Example 119, (3′S,5S,7′R)-12′-hydroxy-2-(4-methoxybenzyl)-3′-methyl-1′,3,11′-trioxo-N-(2,4,6-trifluorobenzyl)-1′,4′,5′,11′-tetrahydro-3′H,7′H-spiro[isoxazolidine-5,6′-[2,7]methanopyrido[1,2-a][1,4]diazonine]-10′-carboxamide] | 2.3 nM | 0.5 nM | 1.5 nM | ≥ 50000 nM | – |
| C[C@H]1CC[C@]2(CCC(=O)N2)[C@H]2CN1C(=O)c1c(O)c(=O)c(C(=O)NCc3c(F)cc(F)cc3F)cn12 [Example 121, (2S,3′S,7′R)-12′-hydroxy-3′-methyl-1′,5,11′-trioxo-N-(2,4,6-trifluorobenzyl)-1′,4′,5′,11′-tetrahydro-3′H,7′H-spiro[pyrrolidine-2,6′-[2,7]methanopyrido[1,2-a][1,4]diazonine]-10′-carboxamide] | 19.9 nM | 16.9 nM | 86.5 nM | ≥ 50000 nM | – |
| C[C@H]1CC[C@]2(CCCN2)[C@H]2CN1C(=O)c1c(O)c(=O)c(C(=O)NCc3c(F)cc(F)cc3F)cn12 [Example 122, (2R,3′S,7′R)-12′-hydroxy-3′-methyl-1′,11′-dioxo-N-(2,4,6-trifluorobenzyl)-1′,4′,5′,11′-tetrahydro-3′H,7′H-spiro[pyrrolidine-2,6′-[2,7]methanopyrido[1,2-a][1,4]diazonine]-10′-carboxamide] | 7.6 nM | 0.9 nM | – | 38000 nM | 6.4 nM |
| C[C@H]1CC[C@@]2(CC(O)CO2)[C@H]2CN1C(=O)c1c(O)c(=O)c(C(=O)NCc3c(F)cc(F)cc3F)cn12 (stereo partly drawn) [Example 123, (2R,3′S,7′R)-4,12′-dihydroxy-3′-methyl-1′,11′-dioxo-N-(2,4,6-trifluorobenzyl)-1′,4,4′,5,5′,11′-hexahydro-3H,3′H,7′H-spiro[furan-2,6′-[2,7]methanopyrido[1,2-a][1,4]diazonine]-10′-carboxamide] | 1.4 nM | 2.1 nM | 8.4 nM | ≥ 50000 nM | – |
| CC1C[C@@]2(CC[C@H](C)N3C[C@H]2n2cc(C(=O)NCc4c(F)cc(F)cc4F)c(=O)c(O)c2C3=O)OCO1 (stereo partly drawn) [Example 124, (3′S,4R,7′R)-12′-hydroxy-3′,6-dimethyl-1′,11′-dioxo-N-(2,4,6-trifluorobenzyl)-1′,4′,5′,11′-tetrahydro-3′H,7′H-spiro[[1,3]dioxane-4,6′-[2,7]methanopyrido[1,2-a][1,4]diazonine]-10′-carboxamide] | 0.4 nM | 0.2 nM | 0.8 nM | 29800 nM | – |
| C[C@H]1CCC2(OCCO2)[C@H]2CN1C(=O)c1c(O)c(=O)c(C(=O)NCc3c(F)cc(F)cc3F)cn12 [Example 125, (3′S,7′R)-12′-hydroxy-3′-methyl-1′,11′-dioxo-N-(2,4,6-trifluorobenzyl)-1′,4′,5′,11′-tetrahydro-3′H,7′H-spiro[[1,3]dioxolane-2,6′-[2,7]methanopyrido[1,2-a][1,4]diazonine]-10′-carboxamide] | 30.2 nM | 0.2 nM | 0.7 nM | 24200 nM | – |
| C[C@H]1CO[C@]2(CC[C@H](C)N3C[C@H]2n2cc(C(=O)NCc4c(F)cc(F)cc4F)c(=O)c(O)c2C3=O)O1 [Example 127, (2R,3′S,4S,7′R)-12′-hydroxy-3′,4-dimethyl-1′,11′-dioxo-N-(2,4,6-trifluorobenzyl)-1′,4′,5′,11′-tetrahydro-3′H,7′H-spiro[[1,3]dioxolane-2,6′-[2,7]methanopyrido[1,2-a][1,4]diazonine]-10′-carboxamide] | 13.3 nM | 0.1 nM | 1.2 nM | 49900 nM | – |
| C[C@H]1CCC2(OCCCO2)[C@H]2CN1C(=O)c1c(O)c(=O)c(C(=O)NCc3c(F)cc(F)cc3F)cn12 [Example 128, (3′S,7′R)-12′-hydroxy-3′-methyl-1′,11′-dioxo-N-(2,4,6-trifluorobenzyl)-1′,4′,5′,11′-tetrahydro-3′H,7′H-spiro[[1,3]dioxane-2,6′-[2,7]methanopyrido[1,2-a][1,4]diazonine]-10′-carboxamide] | 18.4 nM | 0.2 nM | 1.1 nM | 20500 nM | – |
| C[C@H]1CCC2(OCCO2)[C@H]2CN1C(=O)c1c(O)c(=O)c(C(=O)NCc3ccc(F)cc3F)cn12 [Example 129, (3′S,7′R)—N-(2,4-difluorobenzyl)-12′-hydroxy-3′-methyl-1′,11′-dioxo-1′,4′,5′,11′-tetrahydro-3′H,7′H-spiro[[1,3]dioxolane-2,6′-[2,7]methanopyrido[1,2-a][1,4]diazonine]-10′-carboxamide] | 8 nM | 0.2 nM | 0.5 nM | 27400 nM | – |
